# Data reported in US20120029187A1, “HALOALKYLSULFONANILIDE DERIVATIVE” (Nissan Chemical Industries, Ltd., priority 2009, published 2012).
# What was measured:
# Assay type in all cases: in vivo
# barnyardgrass [1] = assay: Test Example 1: herbicidal effects in preemergence treatment under submerged conditions; settings: dose 2.52 g/a
# Source text: (§1) Test on the Herbicidal Effects in Preemergence Treatment on Weeds Under Submerged Conditions
# (§2) Alluvial soil was put in 1/30000-are styrol cups and admixed with water so that it was submerged at a depth of 4 cm. In each cup, seeds of barnyardgrass, bulrush and ducksalad were sown together, and rice seedlings at the 2.5-leaf stage were transplanted. On the same day as the seeding, emulsifiable concentrates containing compounds of the present invention formulated in accordance with Formulation Example 2 were applied to the water surfaces at predetermined doses after diluted with water. The cups were placed in a greenhouse at 25 to 30° C. to grow the plants. Three weeks after the application, the herbicidal effects against various plants were determined on the following evaluation scale.
# (§3) 5 mortality of 90% or above (nearly complete death)
# (§4) 4 mortality of at least 70% and less than 90%
# (§5) 3 mortality of at least 40% and less than 70%
# (§6) 2 mortality of at least 20% and less than 40%
# (§7) 1 mortality of at least 5% and less than 20%
# (§8) 0 mortality of less than 5% (almost ineffective)
# (§9) A: barnyardgrass, B: bulrush, C: ducksalad, D: large crabgrass, E: giant foxtail, F: wild oat, G: water foxtail, H: Italian ryegrass, I: velvetleaf, J: common ragweed, K: redroot pigweed, L: common lambsquater, M: posumbu knotweed, N: common chickweed, O: beadstraw, a: transplanted rice, b: corn, c: soybean, d: direct-seeded rice, e: wheat, f: sugar beet.
# (§10) The doses (g/a) represents the amounts in g per 1 are (a) applied after adjustment of concentration adjustment.
# bulrush [2] = assay: as above; settings: dose 2.52 g/a
# Source text: as §1, §2, §3, §4, §5, §6, §7, §8, §9, §10
# ducksalad [3] = assay: as above; settings: dose 2.52 g/a
# Source text: as §1, §2, §3, §4, §5, §6, §7, §8, §9, §10
# transplanted rice = assay: Test Example 1: preemergence treatment under submerged conditions, effect on crop; settings: dose 2.52 g/a
# Source text: as §1, §2, §3, §4, §5, §6, §7, §8, §9, §10
# barnyardgrass [4] = assay: Test Example 2: herbicidal effects during the vegetation period under submerged conditions; settings: treatment during the vegetation period under submerged conditions; dose 2.52 g/a
# Procedure: (§11) Test on the Herbicidal Effects on Weeds During the Vegetation Period Under Submerged Conditions
# (§12) Alluvial soil was put in 1/30000-are styrol cups and admixed with water so that it was submerged at a depth of 4 cm. In each cup, seeds of barnyardgrass, bulrush and ducksalad were sown together, and the cups were placed in a greenhouse at 25 to 30° C. to grow the plants. When the barnyardgrass, bulrush and ducksalad reached the 1- or 2-leaf stage, emulsifiable concentrates containing compounds of the present invention formulated in accordance with Formulation Example 2 were applied to the water surfaces at predetermined doses after diluted with water. Three weeks after the application, the herbicidal effects against various plants were determined on the same evaluation scale as in Test Example 1.
# as §9, §10
# bulrush [5] = assay: as above; settings: treatment during the vegetation period under submerged conditions; dose 2.52 g/a
# Procedure: as §11, §12, §9, §10
# ducksalad [6] = assay: as above; settings: treatment during the vegetation period under submerged conditions; dose 2.52 g/a
# Procedure: as §11, §12, §9, §10
# Italian ryegrass [7] = assay: Test Example 3: herbicidal effects in soil treatment; settings: dose 3.2 g/a
# Source text: (§13) Test on the Herbicidal Effects in Soil Treatment
# (§14) Sterilized diluvial soil was put in plastic boxes with a length of 21 cm, a width of 13 cm and a depth of 7 cm, and seeds of barnyardgrass, large crabgrass, giant foxtail, wild oat, blackgrass, velvetleaf, common ragweed, redroot pigweed, common lambsquater, posumbu knotweed, common chickweed corn, soybean, rice, wheat and sugar beet were sown in spots and covered with an about 1.5 cm-thick soil layer. Emulsifiable concentrates containing compounds of the present invention formulated in accordance with Formulation Example 2 were uniformly applied to the soil surfaces at predetermined doses through a small sprayer after dilute with water. Three weeks after the application, the herbicidal effects against various plants were determined on the same evaluation scale as in Test Example 1.
# as §9, §10
# barnyardgrass [8] = assay: as above; settings: dose 3.2 g/a
# Source text: as §13, §14, §9, §10
# common chickweed [9] = assay: as above; settings: dose 3.2 g/a
# Source text: as §13, §14, §9, §10
# common lambsquater [10] = assay: as above; settings: dose 3.2 g/a
# Source text: as §13, §14, §9, §10
# common ragweed [11] = assay: as above; settings: dose 3.2 g/a
# Source text: as §13, §14, §9, §10
# giant foxtail [12] = assay: as above; settings: dose 3.2 g/a
# Source text: as §13, §14, §9, §10
# large crabgrass [13] = assay: as above; settings: dose 3.2 g/a
# Source text: as §13, §14, §9, §10
# posumbu knotweed [14] = assay: as above; settings: dose 3.2 g/a
# Source text: as §13, §14, §9, §10
# redroot pigweed [15] = assay: as above; settings: dose 3.2 g/a
# Source text: as §13, §14, §9, §10
# water foxtail [16] = assay: as above; settings: dose 3.2 g/a
# Source text: as §13, §14, §9, §10
# Italian ryegrass [17] = assay: Test Example 4: herbicidal effect in foliage treatment; settings: dose 3.2 g/a, three weeks after application
# Source text: (§15) Test on the Herbicidal Effect in Foliage Treatment
# as §14, with “chickweed,” for “chickweed”, “The boxes were placed in a greenhouse at 25 to 30° C. to grow the plants. After 14 days, emulsifiable” for “Emulsifiable”, “foliage” for “soil surfaces”, “diluted” for “dilute”
# as §9, §10
# barnyardgrass [18] = assay: as above; settings: dose 3.2 g/a, three weeks after application
# Source text: as §15
# as §14, with “chickweed,” for “chickweed”, “The boxes were placed in a greenhouse at 25 to 30° C. to grow the plants. After 14 days, emulsifiable” for “Emulsifiable”, “foliage” for “soil surfaces”, “diluted” for “dilute”
# as §9, §10
# beadstraw = assay: as above; settings: dose 3.2 g/a, three weeks after application
# Source text: as §15
# as §14, with “chickweed,” for “chickweed”, “The boxes were placed in a greenhouse at 25 to 30° C. to grow the plants. After 14 days, emulsifiable” for “Emulsifiable”, “foliage” for “soil surfaces”, “diluted” for “dilute”
# as §9, §10
# common chickweed [19] = assay: as above; settings: dose 3.2 g/a, three weeks after application
# Source text: as §15
# as §14, with “chickweed,” for “chickweed”, “The boxes were placed in a greenhouse at 25 to 30° C. to grow the plants. After 14 days, emulsifiable” for “Emulsifiable”, “foliage” for “soil surfaces”, “diluted” for “dilute”
# as §9, §10
# common lambsquater [20] = assay: as above; settings: dose 3.2 g/a, three weeks after application
# Source text: as §15
# as §14, with “chickweed,” for “chickweed”, “The boxes were placed in a greenhouse at 25 to 30° C. to grow the plants. After 14 days, emulsifiable” for “Emulsifiable”, “foliage” for “soil surfaces”, “diluted” for “dilute”
# as §9, §10
# common ragweed [21] = assay: as above; settings: dose 3.2 g/a, three weeks after application
# Source text: as §15
# as §14, with “chickweed,” for “chickweed”, “The boxes were placed in a greenhouse at 25 to 30° C. to grow the plants. After 14 days, emulsifiable” for “Emulsifiable”, “foliage” for “soil surfaces”, “diluted” for “dilute”
# as §9, §10
# giant foxtail [22] = assay: as above; settings: dose 3.2 g/a, three weeks after application
# Source text: as §15
# as §14, with “chickweed,” for “chickweed”, “The boxes were placed in a greenhouse at 25 to 30° C. to grow the plants. After 14 days, emulsifiable” for “Emulsifiable”, “foliage” for “soil surfaces”, “diluted” for “dilute”
# as §9, §10
# large crabgrass [23] = assay: as above; settings: dose 3.2 g/a, three weeks after application
# Source text: as §15
# as §14, with “chickweed,” for “chickweed”, “The boxes were placed in a greenhouse at 25 to 30° C. to grow the plants. After 14 days, emulsifiable” for “Emulsifiable”, “foliage” for “soil surfaces”, “diluted” for “dilute”
# as §9, §10
# posumbu knotweed [24] = assay: as above; settings: dose 3.2 g/a, three weeks after application
# Source text: as §15
# as §14, with “chickweed,” for “chickweed”, “The boxes were placed in a greenhouse at 25 to 30° C. to grow the plants. After 14 days, emulsifiable” for “Emulsifiable”, “foliage” for “soil surfaces”, “diluted” for “dilute”
# as §9, §10
# redroot pigweed [25] = assay: as above; settings: dose 3.2 g/a, three weeks after application
# Source text: as §15
# as §14, with “chickweed,” for “chickweed”, “The boxes were placed in a greenhouse at 25 to 30° C. to grow the plants. After 14 days, emulsifiable” for “Emulsifiable”, “foliage” for “soil surfaces”, “diluted” for “dilute”
# as §9, §10
# velvetleaf = assay: as above; settings: dose 3.2 g/a, three weeks after application
# Source text: as §15
# as §14, with “chickweed,” for “chickweed”, “The boxes were placed in a greenhouse at 25 to 30° C. to grow the plants. After 14 days, emulsifiable” for “Emulsifiable”, “foliage” for “soil surfaces”, “diluted” for “dilute”
# as §9, §10
# water foxtail [26] = assay: as above; settings: dose 3.2 g/a, three weeks after application
# Source text: as §15
# as §14, with “chickweed,” for “chickweed”, “The boxes were placed in a greenhouse at 25 to 30° C. to grow the plants. After 14 days, emulsifiable” for “Emulsifiable”, “foliage” for “soil surfaces”, “diluted” for “dilute”
# as §9, §10
compound,measurement,setting,value
CC(C)COC(=O)N(c1ccccc1CN1COC(C)(C(F)(F)F)CC1=O)S(=O)(=O)C(F)(F)F (centres unmarked) [II-50],"A: barnyardgrass, herbicidal effect (evaluation scale 0-5)",barnyardgrass [1],5 (mortality of 90% or above (nearly complete death))
same,"B: bulrush, herbicidal effect (evaluation scale 0-5)",bulrush [2],5 (mortality of 90% or above (nearly complete death))
same,"C: ducksalad, herbicidal effect (evaluation scale 0-5)",ducksalad [3],5 (mortality of 90% or above (nearly complete death))
same,"a: transplanted rice, effect on crop (evaluation scale 0-5)",transplanted rice,0 (mortality of less than 5% (almost ineffective))
same,"A: barnyardgrass, herbicidal effect (evaluation scale 0-5)",barnyardgrass [4],5 (mortality of 90% or above (nearly complete death))
same,"B: bulrush, herbicidal effect (evaluation scale 0-5)",bulrush [5],5 (mortality of 90% or above (nearly complete death))
same,"C: ducksalad, herbicidal effect (evaluation scale 0-5)",ducksalad [6],5 (mortality of 90% or above (nearly complete death))
same,"H: Italian ryegrass, herbicidal effect (evaluation scale 0-5)",Italian ryegrass [7],0 (mortality of less than 5% (almost ineffective))
same,"A: barnyardgrass, herbicidal effect (evaluation scale 0-5)",barnyardgrass [8],4 (mortality of at least 70% and less than 90%)
same,"N: common chickweed, herbicidal effect (evaluation scale 0-5)",common chickweed [9],3 (mortality of at least 40% and less than 70%)
same,"L: common lambsquater, herbicidal effect (evaluation scale 0-5)",common lambsquater [10],3 (mortality of at least 40% and less than 70%)
same,"J: common ragweed, herbicidal effect (evaluation scale 0-5)",common ragweed [11],3 (mortality of at least 40% and less than 70%)
same,"E: giant foxtail, herbicidal effect (evaluation scale 0-5)",giant foxtail [12],2 (mortality of at least 20% and less than 40%)
same,"D: large crabgrass, herbicidal effect (evaluation scale 0-5)",large crabgrass [13],3 (mortality of at least 40% and less than 70%)
same,"M: posumbu knotweed, herbicidal effect (evaluation scale 0-5)",posumbu knotweed [14],0 (mortality of less than 5% (almost ineffective))
same,"K: redroot pigweed, herbicidal effect (evaluation scale 0-5)",redroot pigweed [15],0 (mortality of less than 5% (almost ineffective))
same,"G: water foxtail, herbicidal effect (evaluation scale 0-5)",water foxtail [16],4 (mortality of at least 70% and less than 90%)
same,"H: Italian ryegrass, herbicidal effect",Italian ryegrass [17],0 (mortality of less than 5% (almost ineffective))
same,"A: barnyardgrass, herbicidal effect",barnyardgrass [18],3 (mortality of at least 40% and less than 70%)
same,"O: beadstraw, herbicidal effect",beadstraw,4 (mortality of at least 70% and less than 90%)
same,"N: common chickweed, herbicidal effect",common chickweed [19],3 (mortality of at least 40% and less than 70%)
same,"L: common lambsquater, herbicidal effect",common lambsquater [20],2 (mortality of at least 20% and less than 40%)
same,"J: common ragweed, herbicidal effect",common ragweed [21],3 (mortality of at least 40% and less than 70%)
same,"E: giant foxtail, herbicidal effect",giant foxtail [22],0 (mortality of less than 5% (almost ineffective))
same,"D: large crabgrass, herbicidal effect",large crabgrass [23],0 (mortality of less than 5% (almost ineffective))
same,"M: posumbu knotweed, herbicidal effect",posumbu knotweed [24],0 (mortality of less than 5% (almost ineffective))
same,"K: redroot pigweed, herbicidal effect",redroot pigweed [25],0 (mortality of less than 5% (almost ineffective))
same,"I: velvetleaf, herbicidal effect",velvetleaf,0 (mortality of less than 5% (almost ineffective))
same,"G: water foxtail, herbicidal effect",water foxtail [26],1 (mortality of at least 5% and less than 20%)
